Experimental data as given in patent US8551959B2, “Glycolipid and use thereof” (RIKEN, priority 2008, dated 2013).
Entries after “also recorded” stand apart in the source; their conditions may differ.

Experiments:
[1] = system: human NKT cells; details: cited from earlier work
[2] = system: NKT cells; details: non-patent document 10; cited from earlier work
[3] = system: IFN-γ; assay: IFN-γ content in serum (sandwich ELISA) after tail vein administration of synthetic glycolipid to mice; format: in vivo, C57BL/6 mice; details: for IFN-γ production level in serum compared with α-GalCer and carba-glycolipid A: 100 μg/kg body weight, FIG. 1; for IFN-γ production level in serum compared with α-GalCer and carba-glycolipid A / IFN-γ production level in serum compared with α-GalCer: 6-60 hr
Description: (§1) DMSO solutions (1 mg/mL concentration) of α-GalCer, carba-glycolipid A, compound 2-9, compound 3-4, compound 3-7 and compound 3-10 were prepared. The above-mentioned DMSO solutions were diluted with saline (manufactured by Otsuka Pharmaceutical Co., Ltd.) containing 0.5% Tween 20 (Bio-Rad) such that the dose would be 100 μg/kg body weight when 200 μL is administered to one mouse from the tail vein.
Each of the prepared solutions (200 μL) of carba-glycolipid A, compound 2-9, compound 3-4, compound 3-7 and compound 3-10 was injected to C57BL/6 mice (5 per group) from the tail vein. α-GalCer was used as a control substance, and 200 μL of α-GalCer solution prepared to a dose of 100 μg/kg body weight according to a similar method was injected from the tail vein. A group administered with a medium (200 μL of saline containing 0.5% Tween 20) was taken as a negative control. The blood (80 μL) was taken from the orbital plexus venosus 6, 12, 24, 36, 48 and 60 hr after administration, and the serum was prepared.
The content of IFN-γ in the serum after lapse of 6, 12, 24, 36, 48 and 60 hr from the administration was measured by sandwich ELISA (ENDOGEN). The measurement results (average value) of the IFN-γ production level and the standard deviation (STDEV) thereof are shown in FIG. 1.
By a method similar to Experimental Example 1, the content of IFN-γ in the serum after lapse of 6, 12, 24, 36, 48 and 60 hr from the administration of α-GalCer, compound 2-9, compound 3-4, compound 3-7, compound 3-10, compound 3-13 and compound 3-16 was measured. The measurement results (average value) of the IFN-γ production level and the standard deviation (STDEV) thereof are shown in FIG. 4.
By a method similar to Experimental Example 1 except that the dose of α-GalCer was 2 μg/mouse and the dose of compound 2-9 was 2 μg/mouse, 0.2 μg/mouse, 0.02 μg/mouse, 0.002 μg/mouse or 0.0002 μg/mouse, the content of IFN-γ in the serum after lapse of 6, 12, 24, 36, 48 and 60 hr from the administration of α-GalCer and compound 2-9 was measured. The measurement results (average value) of the IFN-γ production level and the standard deviation (STDEV) thereof are shown in FIG. 5.

[4] = system: IL-4; assay: IL-4 content in serum (Cytometric bead array) after tail vein administration of synthetic glycolipid to mice; format: in vivo, C57BL/6 mice; details: Experimental Example 3; 2, 0.2 or 0.02 μg/mouse; 3 and 6 hr; FIG. 7
Description: as §1, with “vein. […]” for “vein.”
The content of IL-4 in the serum after lapse of 3, 6 and 12 hr from the administration was measured by Cytometric bead array system (BD Biosciences), which is one kind of the ELISA method. […]
By a method similar to Experimental Example 1, the content of IL-4 in the serum after lapse of 3 and 6 hr from the administration of α-GalCer, compound 2-9, compound 3-4, compound 3-7, compound 3-10, compound 3-13 and compound 3-16 was measured. […]
By a method similar to Experimental Example 1 except that the dose of α-GalCer and compound 2-9 was 2 μg/mouse, 0.2 μg/mouse or 0.02 μg/mouse, the content of IL-4 in the serum after lapse of 3 and 6 hr from the administration of α-GalCer and compound 2-9 was measured. […]

[5] = system: IL-12; assay: IL-12 content in serum (Cytometric bead array) after tail vein administration of synthetic glycolipid to mice; format: in vivo, C57BL/6 mice; details: Experimental Example 3; 2, 0.2 or 0.02 μg/mouse; 3 and 6 hr; FIG. 9
Description: as §1, with “vein. […]” for “vein.”
The content of IL-12 in the serum after lapse of 3, 6 and 12 hr from the administration was measured by Cytometric bead array system (BD Biosciences), which is one kind of the ELISA method. […]
By a method similar to Experimental Example 1, the content of IL-12(p70) in the serum after lapse of 3 and 6 hr from the administration of α-GalCer, compound 2-9, compound 3-4, compound 3-7, compound 3-10, compound 3-13 and compound 3-16 was measured. […]
By a method similar to Experimental Example 1 except that the dose of α-GalCer and compound 2-9 was 2 μg/mouse, 0.2 μg/mouse or 0.02 μg/mouse, the content of IL-12(p70) in the serum after lapse of 3 and 6 hr from the administration of α-GalCer and compound 2-9 was measured. […]

[6] = non-patent document 7; cited from earlier work
[7] = Experimental Example 1, tail vein
[8] = Experimental Example 1, conclusion from IFN-γ, IL-4 and IL-12 levels
[9] = Experimental Example 2, conclusion from IFN-γ, IL-4 and IL-12 levels
[10] = Experimental Example 2, tail vein, FIG. 4

Structure (SMILES): CCCCCCCCCCCCCCCCCCCCCCCCCC(=O)N[C@@H](CO[C@H]1CC(CO)[C@H](O)C(O)C1O)[C@H](O)[C@H](O)CCCCCCCCCCCCCC (stereo partly shown) [carba-glycolipid A]
- Activity on human NKT cells in vitro [1]: strong activity
- Induction of IFN-γ production by NKT cells [2]: strongly induces IFN-γ production

Structure (SMILES): CCCCCCCCCCCCCCCCCCCCCCCCCC(=O)N[C@@H](CO[C@H]1OC(COC)[C@H](O)[C@H](O)C1O)[C@H](O)[C@H](O)CCCCCCCCCCCCCC (stereo partly shown) [compound 2-9]
- IFN-γ production level in serum compared with α-GalCer and carba-glycolipid A [3, 7]: larger amount of IFN-γ than α-GalCer and carba-glycolipid A; also recorded: most strongly
- Selective induction of IFN-γ production compared to α-GalCer and carba-glycolipid A [3, 8]: selectively induced production of IFN-γ in larger amounts
- Selective induction of IFN-γ production compared to α-GalCer [3, 9]: selectively induced production of IFN-γ in larger amounts
- IFN-γ production level in serum compared with α-GalCer [3, 10]: larger amount of IFN-γ than α-GalCer; also recorded: most strongly
- IFN-γ production level in serum compared with α-GalCer ([3]; Experimental Example 3, compound 2-9 at 2 to 0.0002 μg/mouse, α-GalCer 2 μg/mouse, FIG. 5): larger amount of IFN-γ than α-GalCer even by administration at a lower concentration
- Selective induction of IFN-γ production compared to α-GalCer ([3]; Experimental Example 3, lower doses of compound 2-9): selectively induced production of IFN-γ in larger amounts
- IL-4 production level in serum [4]: decreased as the dose of compound 2-9 was reduced
- IL-12(p70) production level in serum as compared with α-GalCer [5]: up to 4 fold

Structure (SMILES): CCCCCCCCCCCCCCCCCCCCCCCCCC(=O)N[C@@H](CO[C@H]1OC(CC)[C@H](O)[C@H](O)C1O)[C@H](O)[C@H](O)CCCCCCCCCCCCCC (stereo partly shown) [compound 3-4]
- IFN-γ production level in serum compared with α-GalCer and carba-glycolipid A [3, 7]: larger amount of IFN-γ than α-GalCer and carba-glycolipid A
- Selective induction of IFN-γ production compared to α-GalCer and carba-glycolipid A [3, 8]: selectively induced production of IFN-γ in larger amounts
- Selective induction of IFN-γ production compared to α-GalCer [3, 9]: selectively induced production of IFN-γ in larger amounts
- IFN-γ production level in serum compared with α-GalCer [3, 10]: larger amount of IFN-γ than α-GalCer

Structure (SMILES): CCCCCCCCCCCCCCCCCCCCCCCCCC(=O)N[C@@H](CO[C@H]1OC(CF)[C@H](O)[C@H](O)C1O)[C@H](O)[C@H](O)CCCCCCCCCCCCCC (stereo partly shown) [compound 3-7]
- IFN-γ production level in serum compared with α-GalCer and carba-glycolipid A [3, 7]: larger amount of IFN-γ than α-GalCer and carba-glycolipid A
- Selective induction of IFN-γ production compared to α-GalCer and carba-glycolipid A [3, 8]: selectively induced production of IFN-γ in larger amounts
- Selective induction of IFN-γ production compared to α-GalCer [3, 9]: selectively induced production of IFN-γ in larger amounts
- IFN-γ production level in serum compared with α-GalCer [3, 10]: larger amount of IFN-γ than α-GalCer

Structure (SMILES): CCCCCCCCCCCCCCCCCCCCCCCCCC(=O)N[C@@H](CO[C@H]1OC(C)[C@H](O)[C@H](O)C1O)[C@H](O)[C@H](O)CCCCCCCCCCCCCC (stereo partly shown) [compound 3-10]
- IFN-γ production level in serum compared with α-GalCer and carba-glycolipid A [3, 7]: larger amount of IFN-γ than α-GalCer and carba-glycolipid A
- Selective induction of IFN-γ production compared to α-GalCer and carba-glycolipid A [3, 8]: selectively induced production of IFN-γ in larger amounts
- Selective induction of IFN-γ production compared to α-GalCer [3, 9]: selectively induced production of IFN-γ in larger amounts
- IFN-γ production level in serum compared with α-GalCer [3, 10]: larger amount of IFN-γ than α-GalCer

Structure (SMILES): CCCCCCCCCCCCCCCCCCCCCCCCCC(=O)N[C@@H](CO[C@H]1OC(COCC)[C@H](O)[C@H](O)C1O)[C@H](O)[C@H](O)CCCCCCCCCCCCCC (stereo partly shown) [compound 3-13]
- Selective induction of IFN-γ production compared to α-GalCer [3, 9]: selectively induced production of IFN-γ in larger amounts
- IFN-γ production level in serum compared with α-GalCer [3, 10]: larger amount of IFN-γ than α-GalCer

Structure (SMILES): CCCCCCCCCCCCCCCCCCCCCCCCCC(=O)N[C@@H](CO[C@H]1OC(COCCC)[C@H](O)[C@H](O)C1O)[C@H](O)[C@H](O)CCCCCCCCCCCCCC (stereo partly shown) [compound 3-16]
- Selective induction of IFN-γ production compared to α-GalCer [3, 9]: selectively induced production of IFN-γ in larger amounts
- IFN-γ production level in serum compared with α-GalCer [3, 10]: larger amount of IFN-γ than α-GalCer

Structure (SMILES): CCCCCCCCCCCCCCCCCCCCCCCCCC(=O)N[C@@H](COC1OC(CO)C(O)C(O)C1O)[C@H](O)[C@H](O)CCCCCCCCCCCCCC (stereo partly drawn) [α-GalCer, reference compound]
- IFN-γ/IL-4 ratio ([3]; Experimental Example 1): 2
- Immunostimulatory activity in a series of synthesis analogs [6]: shows the strongest activity
